Here are results for one compound from publication PMC10963859 (Redox Biology, 2024).

The assay deals with GPX4. Format: biochemical. As to conditions: covalent; without GCTR.

Usually IC50 stands for the concentration at which inhibition is half-maximal. Higher therefore signals lower potency. For `COC(=O)c1ccc([C@H]2c3[nH]c4ccccc4c3C[C@H](C(=O)OC)N2C(=O)CCl)cc1` [RSL3], half-maximal inhibition (IC50) was put at 12.4 µM. In other words, the double-digit micromolar range.
